Measured values reported in US6451798B2, “Substituted alkyl piperazine derivatives” (CV Therapeutics, Inc., priority 2000, dated 2002).

Tests used:
[1] = Metabolic stability in human liver S-9 fractions; conditions: for Liver S-9 stability factor: % parent remaining after 30 min at 37 C divided by average % ranolazine remaining (57%), 10 μM, human liver S9 2 mg/mL
Experimental: As a measure of metabolic stability the compounds of this invention were incubated with human liver S-9 microsomal fractions. After, 30 minutes at 37 C, the amount of parent drug remaining was determined using LC-mass spec. The response factors for each compound was determined by establishing a standard curve and using an internal standard during the analysis of the samples. […] The compounds of this invention were assayed as described in the protocol below and the percentage of parent remaining was divided by the average % of ranolazine remaining (57%) affording a metabolic stability factor.
The following reagents were used; Potassium phosphate, 0.5M pH 74. (incubation buffer), kept at room temperature; 0.05M MgCl2 kept at 4° C.; β-Nicotinamide adenine dinucleotide phosphate, tetrasodium salt, reduced form (NADPH), 0.02M solution in water (˜16.6 mg/mL) from Sigma Lot #79H7044 prepared on day of use.
Incubation mixtures were prepared as follows:
Combine all components with incubation buffer and re-pipette 200 μL/tube+25 μL of the compound being tested along with 25 μL of S-9.
After 5 min of pre-incubation at 37° C., at 0 and 30 min after starting the reaction, a 50 μl aliquot of the incubation mixture was removed and added to 100 μL of 9:1 acetonitrile: methanol containing the internal standard.
The mixture was centrifuged and a 100 μL aliquot of the supernatant was diluted in 1 mL of solvent C (0.1% Formic Acid in water). Then samples were analyzed for change between the ratio of compound to internal standard at time zero and 30 minutes by LC/MS (injected 10 μL).
Samples were analyzed for the starting compounds and potential metabolite/s by LC/MS using an internal standard on a Micromass platform mass spec with a Keystone Inc. BDS ODS-C18 column with a flow rate of 0.25 ml/min.

[2] = tested on: mitochondrial fatty acid oxidation using palmitoyl carnitine as substrate; assay: Palmitoyl carnitine oxidation in isolated rat heart mitochondria; type: biochemical; conditions: 15 min at 30° C.
Experimental: Rat heart mitochodria were isolated by the method of Nedergard and Cannon (Methods in Enzymol. 55, 3, 1979).
The Palmitoyl carnitine oxidation was carried out in a total volume of 100 microliters containing the following agents: 110 mM KCl, 33 mM Tris buffer at pH 8, 2 mM KPi, 2 mM MgCl2, 0.1 mM EDTA, 0.1 mg/ml of defatted BSA, 0.5 mM malic acid, 3 mM ADP, 52 micrograms of mitochondrial protein, and 43 microM 1-C14 palmitoyl carnitine (Sp. Activity 60 mCi/mmole; 20 microCi/ml, using 5 microliters per assay). The compounds of this invention were added in a DMSO solution at the following concentrations: 100 microM, 30 microM, and 3 microM. In each assay, a DMSO control was used. After 15 min at 30° C., the enzymatic reaction was centrifuged (20,000 g for 1 min), and 70 microliters of the supernatant was added to an activated reverse phase silicic acid column (approximately 0.5 ml of silicic acid). The column was eluted with 2 ml of water, and 0.5 ml of the eluent was used for scintillation counting to determine the amount of C^14 trapped as C^14 bicarbonate ion. The data are presented as % activity of control.

Row | Liver S-9 stability factor [1] | Structure (SMILES) | also measured
1 | 0.01 | Cc1cccc(C)c1NC(=O)CN1CCN(CC(O)COCc2ccc3ccccc3c2)CC1 (stereo not drawn) [Compound 25, N-(2,6-dimethylphenyl)-2-{4-[2-hydroxy-3-(2-naphthylmethoxy)propyl]piperazinyl}acetamide] | 
2 | 1.0 | COc1ccccc1OCC(O)CN1CCN(CC(=O)Nc2c(C)cccc2C)CC1 (racemic) [Ranolazine, (±)-N-(2,6-dimethylphenyl)-4-[2-hydroxy-3-(2-methoxyphenoxy)propyl]-1-piperazineacetamide, reference compound] | Mitochondrial fatty acid oxidation activity (% of control) ([2]; 30 μM compound): 98%; Mitochondrial fatty acid oxidation activity (% of control) ([2]; 100 μM compound): 63%; percentage of parent drug remaining at the 30 minute time point ([1]; human liver S-9, 30 minutes at 37 C, average of five experiments): 57%
3 | 0.61 | Cc1ccc(COCC(O)CN2CCN(CC(=O)Nc3c(C)cccc3C)CC2)cc1 (stereo not drawn) [Compound 22, N-(2,6-dimethylphenyl)-2-(4-{2-hydroxy-3-[(4-methylphenyl)methoxy]propyl}piperazinyl)acetamide] | 
4 | 0.05 | Cc1cccc(C)c1NC(=O)CN1CCN(CC(O)COCc2ccc(-c3ccccc3)cc2)CC1 (stereo not drawn) [Compound 23, N-(2,6-dimethylphenyl)-2-(4-{2-hydroxy-3-[(4-phenylphenyl)methoxy]propyl}piperazinyl)acetamide] | 

The next lines start with the compound.

Row | Structure (SMILES) | Liver S-9 stability factor [1] | also measured
5 | Cc1cccc(C)c1NC(=O)CN1CCN(CC(O)COC2CCCC2)CC1 (stereo not drawn) [Compound 12] | 1.48 | 
6 | Cc1cccc(C)c1NC(=O)CN1CCN(CC(O)COC2CCCCC2)CC1 (stereo not drawn) [Compound 13] | 1.20 | 
7 | Cc1cccc(C)c1NC(=O)CN1CCN(CC(O)COC(C)C)CC1 (stereo not drawn) [Compound 10] |  | Mitochondrial fatty acid oxidation activity (% of control) ([2]; 100 μM compound): 80%
8 | Cc1cccc(C)c1NC(=O)CN1CCN(CC(O)COCc2ccc(C(F)(F)F)cc2)CC1 (stereo not drawn) [Compound 17, N-(2,6-dimethylphenyl)-2-[4-(2-hydroxy-3-{[4-(trifluoromethyl)phenyl]methoxy}propyl)piperazinyl]acetamide] | 1.0 | 
9 | CCCCc1ccc(COCC(O)CN2CCN(CC(=O)Nc3c(C)cccc3C)CC2)cc1 (stereo not drawn) [Compound 24, N-(2,6-dimethylphenyl)-2-(4-{3-[(4-butylphenyl)methoxy]-2-hydroxypropyl}piperazinyl)acetamide] | 0.02 | 
